Here are results for 57 compounds from patent US20230109839A1, “THERAPEUTIC AGENT FOR TAUOPATHIES” (SUMITOMO PHARMA CO., LTD., priority 2020, published 2023).

One assay concerns the target T1, human Nav1.1 (Homo sapiens, UniProt P35498).
T1 construct: host or cells: HEK293
The assay is described as follows: Amplification of Nav1.1-derived voltage-gated sodium current (Nav1.1 current), automated patch clamp (Test 1). The assay is classed as cell-based. The following applies: Concentration for evaluation 1 μM; HEK293 cell line stably expressing human Nav1.1. In short, it runs like this:
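Compound-induced change in ramp-evoked sodium current peak and AUC was expressed as 100×post/pre ratio minus 100. Recordings used automated patch clamp in voltage-clamp mode on a stable human Nav1.1 HEK293 line, including only cells above 500 pA. Compounds were delivered in extracellular fluid containing 1% DMSO.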
Consider `CN(CCC1CC1)c1ncc2cnn(CC(=O)Nc3ccn4ncnc4c3)c2n1` [Example 790], for which the “Nav1.1 current amplification rate (%)” value was 31%.
The same measure, in the same setting: with `CN(c1cnc2cnn(CC(=O)Nc3cncc(Br)c3)c2n1)C1CCC1` [Example 692] the figure was 33%.
On to `CN(c1cnc2cnn(CC(=O)N3CCc4c(C5=CCOCC5)cccc43)c2n1)C1CCC1` [Example 688], for which the “Nav1.1 current amplification rate (%)” value is listed as 201%.
In the case of `CC1CC=C(c2ccc(=O)n(CC(=O)Nc3cncc(C4=CCN(C)C4)c3)n2)CC1` (stereo not drawn) [Example 367], the “Nav1.1 current amplification rate (%)” value worked out at 38%.
With `CC1CC=C(c2ccc(=O)n(CC(=O)N3CCc4c(-c5cn[nH]c5)cncc43)n2)CC1` (stereo not drawn) [Example 311], the “Nav1.1 current amplification rate (%)” value is on record as 265%.
On the same count and under the same terms, with `CC1CC=C(c2ccc(=O)n(CC(=O)Nc3ccc4ncnn4n3)n2)CC1` (stereo not drawn) [Example 350] the figure was 31%; with `CC1CC=C(c2ccc(=O)n(CC(=O)N3CCc4c3ccc(F)c4-c3ccnnc3)n2)CC1` (stereo not drawn) [Example 295], 95%.
On the same count and under the same terms, then `Cc1cc(NC(=O)Cn2ncc3ncc(N(C)C4CCCC4)nc32)cn2ncnc12` [Example 677], with 35%; and `CC1CC=C(c2ccc(=O)n(CC(=O)Nc3cncc(C4=COCCC4)c3)n2)CC1` (stereo not drawn) [Example 382], with 13%; and `CN(CC1CCC1)c1cnc2cnn(CC(=O)Nc3ccn4ncnc4c3)c2n1` [Example 625], with 255%.
Still for that read-out and setting: then `Cc1cn2ccc(NC(=O)Cn3ncc4ncc(N(C)C5CCC5)nc43)cc2n1` [Example 686], with 13%; and `CN(c1cnc2cnn(CC(=O)Nc3ccc4nccnc4c3)c2n1)C1CCCC1` [Example 680], with 50%; and `CN(c1cnc2cnn(CC(=O)Nc3ccc4cnnn4c3)c2n1)C1CC1` [Example 707], with 62%.
Turning to `CC1CC=C(c2ccc(=O)n(CC(=O)Nc3ccn4cnnc4c3)n2)CC1` (stereo not drawn) [Example 358], the “Nav1.1 current amplification rate (%)” value is recorded as 71%.

The same assay, now with this note: Concentration for evaluation 3 μM; HEK293 cell line stably expressing human Nav1.1.
With `CC(C)c1ccc(NC(=O)Cn2ncc3ncc(N(C)C4CC4)nc32)cn1` [Example 708], the “Nav1.1 current amplification rate (%)” value worked out at 25%.
On the same count and under the same terms, with `CC1CC=C(c2ccc(=O)n(CC(=O)Nc3ccc4oc(C(C)(C)O)nc4c3)n2)CC1` (stereo not drawn) [Example 327] the figure was 124%; with `CC1CC=C(c2ccc(=O)n(CC(=O)N3CCc4c(-c5cccnc5)cccc43)n2)CC1` (stereo not drawn) [Example 248], 392%; with `CC1CC=C(c2ccc(=O)n(CC(=O)N3CCc4c(-c5ccnnc5)cccc43)n2)CC1` (stereo not drawn) [Example 253], 455%.
On the same count and under the same terms, then `CC1CC=C(c2ccc(=O)n(CC(=O)N3CCN(c4ccccc4)CC3)n2)CC1` (stereo not drawn) [Example 258], with 79%; and `COc1cnc(C)c(N2CCN(C(=O)Cn3nc(C4=CCC(C)CC4)ccc3=O)CC2)c1` (stereo not drawn) [Example 418], with 105%; and `O=C(Cn1nc(C2=CCC3(CC2)CC3(F)F)ccc1=O)N1CCc2c(N3CCOCC3)cccc21` (stereo not drawn) [Example 478], with 345%.

The assay is the same for the next values; noted with them: Concentration for evaluation 10 μM; HEK293 cell line stably expressing human Nav1.1.
As for `COc1cc(NC(=O)Cn2nc(N3CCC(C)CC3)ccc2=O)ccn1` [Example 74], the “Nav1.1 current amplification rate (%)” value is listed as 70%.
With `CC1CC=C(c2ccc(=O)n(CC(=O)N3CCC(c4ccncc4)CC3)n2)CC1` (stereo not drawn) [Example 259], the “Nav1.1 current amplification rate (%)” value is recorded as 71%.
Still for that read-out and setting: then `CC1CCN(c2ccc(=O)n(CC(=O)Nc3ccc(C#N)cc3)n2)C1` (stereo not drawn) [Example 19], with 98%; and `CC1(C)CC=C(c2ccc(=O)n(CC(=O)Nc3ccc(C#N)cc3)n2)CC1` [Example 42], with 216%; and `CC1CCN(c2ccc(=O)n(CC(=O)Nc3cccc(-c4cnco4)c3)n2)CC1` [Example 77], with 93%.
Same read-out and setting: then `CC1CC=C(c2ccc(=O)n(CC(=O)N3CCN(c4cccnc4)CC3)n2)CC1` (stereo not drawn) [Example 395], with 343%; and `CC1CCN(c2ccc(=O)n(CC(=O)Nc3ccc4c(c3)ncn4C)n2)CC1` [Example 98], with 15%.
Regarding `N#Cc1ccc(NC(=O)Cn2nc(C3CCC(F)(F)CC3)ccc2=O)cc1` [Example 47], the “Nav1.1 current amplification rate (%)” value came out at 11%.
Take `COc1ccc(NC(=O)Cn2nc(N3CCC(C)CC3)ccc2=O)cn1` [Example 62]: the “Nav1.1 current amplification rate (%)” value is 13%.
`Cc1ccc(-c2ccc(=O)n(CC(=O)Nc3cncnc3)n2)cc1` [Example 141]: the “Nav1.1 current amplification rate (%)” value stood at 46%.
Same read-out and setting: with `CC1CC=C(c2ccc(=O)n(CC(=O)N3CCc4c3ccnc4C3=CCNC3)n2)CC1` (stereo not drawn) [Example 281] the figure was 40%; with `CC1CC=C(c2ccc(=O)n(CC(=O)N3CCN(c4cncc(F)c4)CC3)n2)CC1` (stereo not drawn) [Example 263], 342%.
On the same count and under the same terms, with `CC1CC=C(c2ccc(=O)n(CC(=O)N3CCN(c4nccs4)CC3)n2)CC1` (stereo not drawn) [Example 414] the figure was 40%; with `CC1CC=C(c2ccc(=O)n(CC(=O)N3CCc4c(N5CCOCC5)cccc43)n2)C1` (stereo not drawn) [Example 477], 398%; with `CC1CC=C(c2ccc(=O)n(CC(=O)N3CCC(c4ccccn4)CC3)n2)CC1` (stereo not drawn) [Example 260], 13%.
Still for that read-out and setting: then `CC1CC=C(c2ccc(=O)n(CC(=O)N3CCc4c(C5CN(C(C)C)C5)cccc43)n2)CC1` (stereo not drawn) [Example 304], with 167%; and `C[C@H]1CC[C@@H](c2ccc(=O)n(CC(=O)Nc3ccc(C#N)cc3)n2)CC1` [Example 44], with 59%; and `CC1(C)CC=C(c2ccc(=O)n(CC(=O)N3CCN(c4cccnc4)CC3)n2)CC1` [Example 440], with 196%.

Still in this assay, the particulars now being: Concentration for evaluation 50 μM; HEK293 cell line stably expressing human Nav1.1.
Take `O=C(Cn1ncc2cnc(N3CC(C4CC4)C3)nc21)Nc1ccn2ncnc2c1` [Example 782]: the “Nav1.1 current amplification rate (%)” value was 64%.
The same measure, in the same setting: with `O=C(Cn1nc(C2=CCCC2)ccc1=O)Nc1ccn2ccnc2c1` [Example 457] the figure was 29%; with `CN(c1cnc2cnn(CC(=O)Nc3cc4ccccc4cn3)c2n1)C1CC1` [Example 718], 34%.

Still in this assay, the particulars now being: HEK293, Concentration for evaluation 1 μM; HEK293 cell line stably expressing human Nav1.1; read-out: Nav1.1 current amplification rate (%).
With `Cc1cnc(-c2cnc3cnn(CC(=O)Nc4ccn5ncnc5c4)c3n2)s1` [Example 575, 2-[6-(5-Methyl-1,3-thiazol-2-yl)-1H-pyrazolo[3,4-b]pyrazin-1-yl]-N-([1,2,4]triazolo[1,5-a]pyridin-7-yl)acetamide], the activation at 1 µM is 84%.
As for `CC1CCN(c2cnc3cnn(CC(=O)Nc4ccn5ncnc5c4)c3n2)CC1` [Example 572, 2-[6-(4-Methylpiperidin-1-yl)-1H-pyrazolo[3,4-b]pyrazin-1-yl]-N-([1,2,4]triazolo[1,5-a]pyridin-7-yl)acetamide], the activation at 1 µM was found to be 49%.
The same measure, in the same setting: with `Cc1ccc(-c2cnc3cnn(CC(=O)Nc4ccn5ncnc5c4)c3n2)c(F)c1` [Example 574, 2-[6-(2-Fluoro-4-methylphenyl)-1H-pyrazolo[3,4-b]pyrazin-1-yl]-N-([1,2,4]triazolo[1,5-a]pyridin-7-yl)acetamide] the figure was 303%.
For the compound `CC(C)CN(C)c1cnc2cnn(CC(=O)Nc3ccn4ncnc4c3)c2n1` [Example 573, 2-{6-[Methyl(2-methylpropyl)amino]-1H-pyrazolo[3,4-b]pyrazin-1-yl}-N-([1,2,4]triazolo[1,5-a]pyridin-7-yl) acetamide], the activation at 1 µM turned out to be 44%.

The same assay, now with this note: HEK293, Concentration for evaluation 10 μM; HEK293 cell line stably expressing human Nav1.1; read-out: Nav1.1 current amplification rate (%).
Take `Cc1nc2cc(NC(=O)Cn3nc(N4CCCCC4)ccc3=O)ccc2o1` [Example 118]: the activation at 10 µM was determined as 7%.

Staying with this assay, now noted: HEK293, concentration for evaluation 1 μM; HEK293 stably expressing human Nav1.1; read-out: Nav1.1 current amplification rate (%).
With `CC1CC=C(c2cnc3cnn(CC(=O)Nc4ccn5ncnc5c4)c3n2)CC1` (stereo not drawn) [Example 895, 2-[6-(4-methylcyclohex-1-en-1-yl)-1H-pyrazolo[3,4-b]pyrazin-1-yl]-N-([1,2,4]triazolo[1,5-a]pyridin-7-yl)acetamide], the activation at 1 µM was 244%.
Still for that read-out and setting: with `Cc1cc(NC(=O)Cn2ncc3cnc(N(C)C4CCCC4)nc32)cc2ncnn12` [Example 837] the figure was 103%.

The assay is the same for the next values; noted with them: HEK293, concentration for evaluation 10 μM; HEK293 stably expressing human Nav1.1; read-out: Nav1.1 current amplification rate (%).
Consider `CC1CC=C(c2ccc3cnn(CC(=O)Nc4ccn5ccnc5c4)c3c2)CC1` (stereo not drawn) [Example 894], for which the activation at 10 µM amounted to 151%.

Staying with this assay, now noted: concentration for evaluation 1 μM; HEK293 stably expressing human Nav1.1.
`CN(c1ncc2cnn(CC(=O)Nc3ccc4ncnn4c3)c2n1)C1CCCC1` [Example 814]: the “Nav1.1 current amplification rate (%)” value turned out to be 87%.
Still for that read-out and setting: then `O=C(Cn1ncc2cnc(N3CCC4(CC4)C(F)(F)C3)nc21)Nc1ccc2ncnn2c1` [Example 813], with 105%.
In the case of `N#Cc1ccc(NC(=O)Cn2ncc3cnc(N4CCC5(CC5)C(F)(F)C4)nc32)nc1` [Example 830], the “Nav1.1 current amplification rate (%)” value was found to be 54%.
On the same count and under the same terms, then `O=C(Cn1ncc2cnc(C3=CCC(F)(F)CC3)nc21)Nc1ccc2ncnn2c1` [Example 812], with 13%; and `O=C(Cn1ncc2ccc(N3CCC4(CC4)C(F)(F)C3)nc21)Nc1ccn2ncnc2c1` [Example 863], with 49%.
In the case of `CC1CCN(c2ncc3cnn(CC(=O)Nc4ccc5cncnc5c4)c3n2)CC1` [Example 806], the “Nav1.1 current amplification rate (%)” value came to 262%.
The same measure, in the same setting: with `CC1(C)CCN(c2ccc3cnn(CC(=O)Nc4ccn5ncnc5c4)c3n2)CC1` [Example 856] the figure was 50%.
